Test results from US20140235544A1, “DISEASE TREATMENT VIA ANTIMICROBIAL PEPTIDES OR THEIR INHIBITORS” (priority 2013, published 2014).

Experiments:
[1] = system: psoriatic lesions in a human subject; experiment: Human in-vivo psoriatic lesion treatment
Experimental: Human in-vivo psoriatic lesion treatment: Cathelicidin 10 ug/ml or human beta defensin-2 diluted in PBS containing 0.1% BSA, or buffer carrier was applied to lesions in a human subject in a blind trial.

[2] = Infection and immunity, November 1999; cited from earlier work
BETATC beta cell line = experiment: Thymidine incorporation cell proliferation assay; assay type: cell-based, mouse; settings: 2 microgram/ml, 3.5 days
Experimental: Murine beta cell line were treated for 3.5 days with LL-37 at 2 microgram/ml (red/dark bars) and compared to PBS control ([…]). Cell proliferation was estimated by measuring [3(H)]-thymidine incorporation and was expressed as percent of control untreated cells. A representative experiment is shown.
The antimicrobial peptides human cathelicidin LL-37: […] was obtained from AnaSpec, USA (Catalogue numbers: 61302). Cathelicidin at 2 ug/ml was added to the plate and compared with control.
Cell proliferation was evaluated by measuring [3(H)]-thymidine incorporation into DNA. Cells were pulsed with [3(H)]-thymidine (1 microcurie/mL, ICN, Irvine, Calif.) for 1 hour, at 37 degrees centigrade. After incubation, cells were washed 3 times with PBS, incubated for 15 minutes at room temperature in 5% trichloroacetic acid and solubilized in 1% triton X-100. The radioactivity incorporated into the cells was counted in the [3(H)]-window of a Tricarb liquid scintillation counter. Mean values were determined from measurements of triplicate samples under each experimental condition for each experiment. Thymidine incorporation was determined as number of disintegrations per minute (DPM) per mg of protein.

[3] = 10 ug/ml applied to lesion, 5 days treatment

Substance | change of skin psoriatic lesion ([1]; applied to lesion, seven week course of treatment) | half-life in blood of humans [2] | change of skin psoriatic lesion [1, 3] | beta cell proliferation ([3(H)]-thymidine incorporation) vs PBS control (BETATC beta cell line)
human beta defensin-2 [reference compound] | worsening | – | – | –
LLGDFFRKSKEKIGKEFKRIVQRIKDFLRNLVPRTES [LL-37] | – | approximately 3.4 days | slight improvement | significant BETATC beta cell line proliferation
SKEKIGKEFKRIVQRIKDFLRNLVPRTES (listed as Homo sapiens) [SK29, cathelicidin fragment, 29 amino acids] | – | – | slight improvement | –
